Molecular target: T1, GluR0 (Synechocystis sp. PCC 6803, UniProt P73797)
T1 sequence (P73797 20-397): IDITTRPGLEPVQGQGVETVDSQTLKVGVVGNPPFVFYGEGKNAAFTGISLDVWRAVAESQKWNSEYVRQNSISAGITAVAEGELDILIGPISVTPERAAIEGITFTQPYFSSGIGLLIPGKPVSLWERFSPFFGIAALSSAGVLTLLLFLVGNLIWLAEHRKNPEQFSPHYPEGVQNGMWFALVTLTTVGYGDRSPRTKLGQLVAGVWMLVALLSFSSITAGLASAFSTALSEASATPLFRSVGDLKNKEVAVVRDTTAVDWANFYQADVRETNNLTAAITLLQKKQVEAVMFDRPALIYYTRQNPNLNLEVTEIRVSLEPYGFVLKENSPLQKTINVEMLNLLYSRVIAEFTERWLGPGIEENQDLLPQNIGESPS
Assay: two-electrode voltage clamp, Xenopus oocytes
Format: cell-based

- EC50: 29.9 ± 5 µM
Structure (SMILES): N[C@@H](CCC(=O)O)C(=O)O [L-glutamate]

From publication doi:10.1101/2021.01.27.428399v1 (biorxiv, 2021)
